What was measured:
Assay in all cases: relative viability (nuclei count vs DMSO), 5 days (fraction); higher = more cells survive
4EGI-1 + Linsitinib = compound: O=C(O)C(Cc1ccccc1[N+](=O)[O-])=NNc1nc(-c2ccc(Cl)c(Cl)c2)cs1 (mixture of isomers) [4EGI-1] + C[C@]1(O)C[C@@H](c2nc(-c3ccc4ccc(-c5ccccc5)nc4c3)c3c(N)nccn32)C1 [Linsitinib] (partner 1 µM)
How it was run: (§1)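 Relative viability is defined as nuclei in treated wells over nuclei in vehicle wells. Duplicate plates were run and medians reported. Lung cancer cell lines in 1536-well plates were dosed by pin tool one day after seeding, with one drug or with a fixed anchor-drug dose plus five library-drug doses (not always all listed) in √10 steps, and nuclei were counted after 5 days.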

XMD8-85 + Alpelisib = compound: CN1CCN(CC1)C2=CC(=C(C=C2)NC3=NC=C4C(=N3)N(C5=CC=CC=C5C(=O)N4C)C)OC [XMD8-85] + Cc1nc(NC(=O)N2CCC[C@H]2C(N)=O)sc1-c1ccnc(C(C)(C)C(F)(F)F)c1 [Alpelisib] (partner 2 µM)
How it was run: as §1

XMD8-85 + Olaparib = compound: CN1CCN(CC1)C2=CC(=C(C=C2)NC3=NC=C4C(=N3)N(C5=CC=CC=C5C(=O)N4C)C)OC [XMD8-85] + O=C(c1cc(Cc2n[nH]c(=O)c3ccccc23)ccc1F)N1CCN(C(=O)C2CC2)CC1 [Olaparib] (partner 8 µM)
How it was run: as §1

4EGI-1 + Bortezomib = compound: O=C(O)C(Cc1ccccc1[N+](=O)[O-])=NNc1nc(-c2ccc(Cl)c(Cl)c2)cs1 (mixture of isomers) [4EGI-1] + CC(C)C[C@H](NC(=O)[C@H](Cc1ccccc1)NC(=O)c1cnccn1)B(O)O [Bortezomib] (partner 0.002 µM)
How it was run: as §1

Cell Line	relative viability (4EGI-1 + Linsitinib; first compound 0.5 µM)	relative viability (4EGI-1 + Linsitinib; first compound 5 µM)	relative viability (4EGI-1 + Linsitinib; first compound 15.81 µM)	relative viability (4EGI-1 + Linsitinib; first compound 50 µM)	relative viability (XMD8-85 + Alpelisib; first compound 0.08 µM)	relative viability (XMD8-85 + Alpelisib; first compound 0.253 µM)	relative viability (XMD8-85 + Alpelisib; first compound 0.8 µM)	relative viability (XMD8-85 + Alpelisib; first compound 2.53 µM)	relative viability (XMD8-85 + Alpelisib; first compound 8 µM)	relative viability (XMD8-85 + Olaparib; first compound 0.08 µM)	relative viability (XMD8-85 + Olaparib; first compound 0.253 µM)	relative viability (XMD8-85 + Olaparib; first compound 0.8 µM)	relative viability (XMD8-85 + Olaparib; first compound 2.53 µM)	relative viability (XMD8-85 + Olaparib; first compound 8 µM)	relative viability (4EGI-1 + Bortezomib; first compound 0.5 µM)	relative viability (4EGI-1 + Bortezomib; first compound 5 µM)	relative viability (4EGI-1 + Bortezomib; first compound 15.81 µM)	relative viability (4EGI-1 + Bortezomib; first compound 50 µM)	relative viability (4EGI-1 + Linsitinib; first compound 1.581 µM)	relative viability (4EGI-1 + Bortezomib; first compound 1.581 µM)
NCI-H2023	0.75	0.562	0.388	0.135	0.488	0.623	0.66	0.664	0.334	0.42	0.452	0.508	0.487	0.285	1.53	1.23	0.309	0.101		
NCI-H1355	0.927	0.714	0.611	0.614	0.844	0.89	0.807	0.731		0.744	0.79	0.714	0.657	0.589	1.32	1.11	1.18	0.545	0.831	1.17
NCI-H1975	0.902	1.01	1.01	0.698	0.578	0.649	0.656	0.727	0.372	0.774	0.784	0.88	0.711	0.376	0.475	0.399	0.36	0.348	0.941	0.393
NCI-H1299	0.944	0.994	1.05	0.849	1.15	0.948	1.08	1.07	0.874	1.02	1	0.97	0.892	0.578	1.02	0.993	0.997	1.02	0.931	1.04

From the supplement of paper PMC10307832
